Measured values as given in patent US9586961B2, “Homopiperazine derivatives as protein tyrosine kinase inhibitors and pharmaceutical use thereof” (LEO PHARMA A/S, priority 2010, dated 2017).
Values belong to the compound of their own block, whether it stands above or below them.

Tests used:
Assay type in all cases: biochemical
JAK1 = molecular target: T1, JAK1 (Homo sapiens, UniProt P23458); experiment: JAK1 kinase assay (HTRF, inhibition of phosphorylation of a synthetic peptide); settings: catalytic domain aa 850-1154, GST-tag; 7 μM ATP (Km); read-out: JAK1 kinase inhibitory activity (EC50)
T1 construct: JAK1 (aa 850-1154) and TYK2 (aa 871-1187) are expressed with an N-terminally fused GST-tag; GST (N); purchased Carna Biosciences, Inc; host or cells: baculovirus expression system
Method in brief: (§1)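 HTRF detection (streptavidin-XL665, cryptate anti-phospho antibody, overnight in the dark) after EDTA stop of a 20-30 min RT reaction on 1 μM TK substrate-biotin. Km-level ATP per kinase: 7 μM for JAK1 and 13 μM for TYK2, both N-terminal GST, with 50 nM SEB; 4 μM for JAK2 and 2 μM for JAK3, both His-tagged. Catalytic domains only; DMSO 0.75%.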

JAK2 = molecular target: T2, JAK2 (Homo sapiens, UniProt O60674); experiment: JAK2 kinase assay (HTRF, inhibition of phosphorylation of a synthetic peptide); settings: catalytic domain, His-tag; 4 μM ATP (Km); read-out: JAK2 kinase inhibitory activity (EC50)
T2 construct: All four purified enzymes contain only the catalytic domain; His (N); purchased Carna Biosciences, Inc; host or cells: baculovirus expression system
Method in brief: as §1

JAK3 = molecular target: T3, JAK3 (Homo sapiens, UniProt P52333); experiment: JAK3 kinase assay (HTRF, inhibition of phosphorylation of a synthetic peptide); settings: catalytic domain, His-tag; 2 μM ATP (Km); read-out: JAK3 kinase inhibitory activity (EC50)
T3 construct: All four purified enzymes contain only the catalytic domain; His (N); purchased Carna Biosciences, Inc; host or cells: baculovirus expression system
Method in brief: as §1

TYK2 = molecular target: T4, TYK2 (Homo sapiens, UniProt P29597); experiment: TYK2 kinase assay (HTRF, inhibition of phosphorylation of a synthetic peptide); settings: catalytic domain aa 871-1187, GST-tag; 13 μM ATP (Km); read-out: TYK2 kinase inhibitory activity (EC50)
T4 construct: JAK1 (aa 850-1154) and TYK2 (aa 871-1187) are expressed with an N-terminally fused GST-tag; GST (N); purchased Carna Biosciences, Inc; host or cells: baculovirus expression system
T4 sequence (P29597 871-1187): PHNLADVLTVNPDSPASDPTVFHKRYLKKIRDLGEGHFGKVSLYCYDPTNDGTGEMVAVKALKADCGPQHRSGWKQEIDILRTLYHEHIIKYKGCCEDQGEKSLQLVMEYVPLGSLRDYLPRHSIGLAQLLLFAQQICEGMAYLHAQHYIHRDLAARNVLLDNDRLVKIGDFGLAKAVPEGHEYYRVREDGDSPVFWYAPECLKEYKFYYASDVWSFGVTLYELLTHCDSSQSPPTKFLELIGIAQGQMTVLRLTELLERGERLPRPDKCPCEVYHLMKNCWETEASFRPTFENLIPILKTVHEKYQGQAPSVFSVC
Description: JAK1, JAK2, JAK3 and TYK2 Kinase Assays:
Human baculovirus-expressed JAK1, 2, 3 and TYK2 were purchased from Carna Biosciences, Inc. All four purified enzymes contain only the catalytic domain. JAK1 (aa 850-1154) and TYK2 (aa 871-1187) are expressed with an N-terminally fused GST-tag, and JAK2 and JAK3 with an N-terminally fused His-tag. Inhibition of phosphorylation of a synthetic peptide was measured in an HTRF-based assay using the TK substrate-Biotin from the CisbioHTRFKinEASE TK kit. First, 2 μl of TK solution (TK substrate-biotin in kinase buffer [1× enzymatic buffer from HTRFKinEASE TK kit, 1 mM DTT]) is added to a plate containing 1 μl prediluted compound (final assay concentration DMSO: 0.75%). Then, 5 μl kinase-ATP mix (prepared in kinase buffer) is added to the wells and the plates are incubated at RT for 20-30 min. For all four kinases a concentration of ATP that corresponded to the Km for ATP was used. The final concentrations of buffers, substrate, kinase and ATP were: JAK1: 50 mMHepes buffer pH 7.0, 0.01% BSA, 10 mM MgCl2, 1 mM DTT, 7 μM ATP, 50 nMSEB, 1 μM TK Substrate-Biotin and 5 ng JAK1; JAK2: 50 mM Hepes buffer pH 7.0, 0.01% BSA, 5 mM MgCl2, 1 mM DTT, 4 μM ATP, 1 μM TK Substrate-Biotin and 0.1 ng JAK2; JAK3: 50 mMHepes buffer pH 7.0, 0.01% BSA, 5 mM MgCl2, 1 mM DTT, 2 μM ATP, 1 μM TK Substrate-Biotin and 0.3 ng JAK3; TYK2: 50 mMHepes buffer pH 7.0, 0.01% BSA, 5 mM MgCl2, 1 mM DTT, 13 μM ATP, 50 nMSEB, 1 μM TK Substrate-Biotin and 0.8 ng TYK2. Thereafter, the kinase reaction is stopped by adding 4 μl detection mix (final concentrations: 50 mM Hepes buffer pH 7.0, 0.01% BSA, 0.8 M KF, 20 mM EDTA, 42 nM Streptavidin-XL665 and 1:400 STKAbCryptate) and the plates are incubated overnight in the dark. The HTRF signal is read using an Envision plate reader.

T3 sequence (P52333 822-1111 limits assumed): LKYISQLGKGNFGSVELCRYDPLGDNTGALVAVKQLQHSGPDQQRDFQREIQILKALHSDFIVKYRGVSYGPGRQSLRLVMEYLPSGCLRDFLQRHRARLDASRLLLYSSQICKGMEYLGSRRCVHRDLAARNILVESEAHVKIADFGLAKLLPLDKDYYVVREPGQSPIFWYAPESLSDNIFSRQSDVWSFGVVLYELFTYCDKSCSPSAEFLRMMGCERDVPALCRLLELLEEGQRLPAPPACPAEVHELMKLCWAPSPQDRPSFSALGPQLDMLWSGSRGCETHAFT
T1 sequence (P23458 850-1154): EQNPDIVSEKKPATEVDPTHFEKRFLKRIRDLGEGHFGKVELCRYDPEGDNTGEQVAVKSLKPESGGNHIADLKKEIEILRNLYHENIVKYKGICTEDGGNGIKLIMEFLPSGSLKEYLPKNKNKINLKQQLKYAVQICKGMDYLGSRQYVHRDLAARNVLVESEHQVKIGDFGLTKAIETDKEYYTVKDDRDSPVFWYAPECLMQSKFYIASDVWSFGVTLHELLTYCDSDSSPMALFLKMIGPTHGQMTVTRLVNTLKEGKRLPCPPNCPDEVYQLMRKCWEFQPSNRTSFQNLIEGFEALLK
T2 sequence (O60674 849-1124 limits assumed): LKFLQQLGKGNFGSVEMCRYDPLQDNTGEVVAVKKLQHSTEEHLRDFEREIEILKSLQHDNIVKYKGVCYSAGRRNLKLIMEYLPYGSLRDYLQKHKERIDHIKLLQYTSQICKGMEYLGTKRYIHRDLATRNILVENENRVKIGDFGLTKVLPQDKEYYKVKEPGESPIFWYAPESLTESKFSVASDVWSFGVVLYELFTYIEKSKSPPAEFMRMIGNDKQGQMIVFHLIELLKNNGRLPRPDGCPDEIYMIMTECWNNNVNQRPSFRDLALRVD

SMILES: CCC1=NOC(C(=O)N2CCCN(c3ncnc4[nH]ccc34)CC23CC3)C1 (racemic) [Example 123, (3-ethyl-4,5-dihydroisoxazol-5-yl)-[5-(7H-pyrrolo[2,3-d]pyrimidin-4-yl)-5,9-diazaspiro[2.6]nonan-9-yl]methanone]
EC50 (JAK1): 0.1 to 1 µM
EC50 (JAK2): 0.1 to 1 µM
EC50 (JAK3): 0.1 to 1 µM
EC50 (TYK2): > 1 µM

SMILES: N#CCCC(=O)N1CCN(c2ncnc3[nH]ccc23)CC2(CC2)C1 [Example 1, 4-Oxo-4-[8-(7H-pyrrolo[2,3-d]pyrimidin-4-yl)-5,8-diazaspiro[2.6]non-5-yl]butyronitrile]
EC50 (JAK1): < 0.1 µM
EC50 (JAK2): < 0.1 µM
EC50 (JAK3): 0.1 to 1 µM
EC50 (TYK2): 0.1 to 1 µM

SMILES: COc1cccc(C(=O)N2CCN(c3ncnc4[nH]ccc34)CC3(CC3)C2)c1OC [Example 2, (2,3-Dimethoxyphenyl)-[8-(7H-pyrrolo[2,3-d]pyrimidin-4-yl)5,8-diazaspiro[2.6]non-5-yl]methanone]
EC50 (JAK1): > 1 µM
EC50 (JAK2): > 1 µM
EC50 (JAK3): > 1 µM
EC50 (TYK2): > 1 µM

SMILES: COc1ncccc1C(=O)N1CCN(c2ncnc3[nH]ccc23)CC2(CC2)C1 [Example 4, (2-Methoxypyridin-3-yl)-[8-(7H-pyrrolo[2,3-d]pyrimidin-4-yl)-5,8-diazaspiro[2.6]non-5-yl]methanone]
EC50 (JAK1): > 1 µM
EC50 (JAK2): > 1 µM
EC50 (JAK3): > 1 µM
EC50 (TYK2): > 1 µM

SMILES: N#CCC(=O)N1CCN(c2ncnc3[nH]ccc23)CC2(CC2)C1 [Example 5, 3-oxo-3-[8-(7H-pyrrolo[2,3-d]pyrimidin-4-yl)-5,8-diazaspiro[2.6]non-5-yl]propionitrile]
EC50 (JAK1): < 0.1 µM
EC50 (JAK2): < 0.1 µM
EC50 (JAK3): < 0.1 µM
EC50 (TYK2): 0.1 to 1 µM

SMILES: CC(=O)N1CCC(C(=O)N2CCN(c3ncnc4[nH]ccc34)CC3(CC3)C2)CC1 [Example 6, 1-{4-[8-(7H-pyrrolo[2,3-d]pyrimidin-4-yl)-5,8-diazaspiro[2.6]nonane-5-carbonyl]piperidin-1-yl}ethanone]
EC50 (JAK1): 0.1 to 1 µM
EC50 (JAK2): 0.1 to 1 µM
EC50 (JAK3): > 1 µM
EC50 (TYK2): > 1 µM

SMILES: N#Cc1ccc2[nH]c(C(=O)N3CCN(c4ncnc5[nH]ccc45)CC4(CC4)C3)cc2c1 [Example 8, 2-[8-(7H-pyrrolo[2,3-d]pyrimidin-4-yl)-5,8-diazaspiro[2.6]nonane-5-carbonyl]-1H-indole-5-carbonitrile]
EC50 (JAK1): < 0.1 µM
EC50 (JAK2): 0.1 to 1 µM
EC50 (JAK3): 0.1 to 1 µM
EC50 (TYK2): > 1 µM

SMILES: CC(C)(C(=O)N1CCN(c2ncnc3[nH]ccc23)CC2(CC2)C1)c1ccc(Cl)cc1 [Example 269, 2-(4-chlorophenyl)-2-methyl-1-[5-(7H-pyrrolo[2,3-d]pyrimidin-4-yl)-5,8-diazaspiro[2.6]nonan-8-yl]propan-1-one]
EC50 (JAK1): 0.1 to 1 µM
EC50 (JAK2): 0.1 to 1 µM
EC50 (JAK3): 0.1 to 1 µM

SMILES: c1ccc(CN2CCCN(c3ncnc4[nH]ccc34)CC23CC3)cc1 [Example 280, 4-(9-benzyl-5,9-diazaspiro[2.6]nonan-5-yl)-7H-pyrrolo[2,3-d]pyrimidine]
EC50 (JAK1): > 1 µM
EC50 (JAK2): 0.1 to 1 µM
EC50 (JAK3): > 1 µM

Next, values leading:

EC50 (JAK1): 0.1 to 1 µM
EC50 (JAK2): 0.1 to 1 µM
EC50 (JAK3): > 1 µM
EC50 (TYK2): > 1 µM
SMILES: N#Cc1cccc(C(=O)N2CCN(c3ncnc4[nH]ccc34)CC3(CC3)C2)c1 [Example 3, 3-[8-(7H-pyrrolo[2,3-d]pyrimidin-4-yl)-5,8-diazaspiro[2.6]nonane-5-carbonyl]benzonitrile]

EC50 (JAK1): > 1 µM
EC50 (JAK2): 0.1 to 1 µM
EC50 (JAK3): > 1 µM
EC50 (TYK2): > 1 µM
SMILES: N#Cc1ccccc1C(=O)N1CCN(c2ncnc3[nH]ccc23)CC2(CC2)C1 [Example 7, 2-[8-(7H-pyrrolo[2,3-d]pyrimidin-4-yl)-5,8-diazaspiro[2.6]nonane-5-carbonyl]benzonitrile]

EC50 (JAK1): 0.1 to 1 µM
EC50 (JAK2): < 0.1 µM
EC50 (JAK3): 0.1 to 1 µM
SMILES: COc1ccc(CC(=O)N2CCN(c3ncnc4[nH]ccc34)CC3(CC3)C2)cc1 [Example 261, 2-(4-methoxyphenyl)-1-[5-(7H-pyrrolo[2,3-d]pyrimidin-4-yl)-5,8-diazaspiro[2.6]nonan-8-yl]ethanone]

EC50 (JAK1): 0.1 to 1 µM
EC50 (JAK2): < 0.1 µM
EC50 (JAK3): > 1 µM
SMILES: Cc1cccc(CC(=O)N2CCN(c3ncnc4[nH]ccc34)CC3(CC3)C2)c1 [Example 262, 2-(m-tolyl)-1-[5-(7H-pyrrolo[2,3-d]pyrimidin-4-yl)-5,8-diazaspiro[2.6]nonan-8-yl]ethanone]

EC50 (JAK1): 0.1 to 1 µM
EC50 (JAK2): < 0.1 µM
EC50 (JAK3): 0.1 to 1 µM
SMILES: O=C(Cc1ccc2ccccc2c1)N1CCN(c2ncnc3[nH]ccc23)CC2(CC2)C1 [Example 265, 2-(2-naphthyl)-1-[5-(7H-pyrrolo[2,3-d]pyrimidin-4-yl)-5,8-diazaspiro[2.6]nonan-8-yl]ethanone]

EC50 (JAK1): < 0.1 µM
EC50 (JAK2): < 0.1 µM
EC50 (JAK3): 0.1 to 1 µM
SMILES: N#CCc1ccc(CC(=O)N2CCN(c3ncnc4[nH]ccc34)CC3(CC3)C2)cc1 [Example 266, 2-[4-[2-oxo-2-[5-(7H-pyrrolo[2,3-d]pyrimidin-4-yl)-5,8-diazaspiro[2.6]nonan-8-yl]ethyl]phenyl]acetonitrile]

EC50 (JAK1): 0.1 to 1 µM
EC50 (JAK2): 0.1 to 1 µM
EC50 (JAK3): 0.1 to 1 µM
SMILES: CC(C)(C)c1ccc(CC(=O)N2CCN(c3ncnc4[nH]ccc34)CC3(CC3)C2)cc1 [Example 267, 2-(4-tert-butylphenyl)-1-[5-(7H-pyrrolo[2,3-d]pyrimidin-4-yl)-5,8-diazaspiro[2.6]nonan-8-yl]ethanone]

EC50 (JAK1): 0.1 to 1 µM
EC50 (JAK2): < 0.1 µM
EC50 (JAK3): 0.1 to 1 µM
SMILES: CN(C)c1ccc(CC(=O)N2CCN(c3ncnc4[nH]ccc34)CC3(CC3)C2)cc1 [Example 268, 2-(4-dimethylaminophenyl)-1-[5-(7H-pyrrolo[2,3-d]pyrimidin-4-yl)-5,8-diazaspiro[2.6]nonan-8-yl]ethanone]

EC50 (JAK1): 0.1 to 1 µM
EC50 (JAK2): < 0.1 µM
EC50 (JAK3): 0.1 to 1 µM
SMILES: O=C(Cc1ccc(Cl)cc1Cl)N1CCN(c2ncnc3[nH]ccc23)CC2(CC2)C1 [Example 270, 2-(2,4-dichlorophenyl)-1-[5-(7H-pyrrolo[2,3-d]pyrimidin-4-yl)-5,8-diazaspiro[2.6]nonan-8-yl]ethanone]

EC50 (JAK1): 0.1 to 1 µM
EC50 (JAK2): < 0.1 µM
EC50 (JAK3): 0.1 to 1 µM
SMILES: N#Cc1ccccc1CC(=O)N1CCN(c2ncnc3[nH]ccc23)CC2(CC2)C1 [Example 272, 2-[2-oxo-2-[5-(7H-pyrrolo[2,3-d]pyrimidin-4-yl)-5,8-diazaspiro[2.6]nonan-8-yl]ethyl]benzonitrile]

EC50 (JAK1): 0.1 to 1 µM
EC50 (JAK2): < 0.1 µM
EC50 (JAK3): 0.1 to 1 µM
SMILES: N#Cc1cc(CC(=O)N2CCN(c3ncnc4[nH]ccc34)CC3(CC3)C2)ccc1F [Example 273, 2-fluoro-5-[2-oxo-2-[5-(7H-pyrrolo[2,3-d]pyrimidin-4-yl)-5,8-diazaspiro[2.6]nonan-8-yl]ethyl]benzonitrile]

EC50 (JAK1): 0.1 to 1 µM
EC50 (JAK2): < 0.1 µM
EC50 (JAK3): 0.1 to 1 µM
SMILES: CC(C(=O)N1CCN(c2ncnc3[nH]ccc23)CC2(CC2)C1)c1ccccc1 (stereo not drawn) [Example 275, 2-phenyl-1-[5-(7H-pyrrolo[2,3-d]pyrimidin-4-yl)-5,8-diazaspiro[2.6]nonan-8-yl]propan-1-one]

EC50 (JAK1): 0.1 to 1 µM
EC50 (JAK2): 0.1 to 1 µM
EC50 (JAK3): > 1 µM
SMILES: CC(=O)Nc1ccc(CC(=O)N2CCN(c3ncnc4[nH]ccc34)CC3(CC3)C2)cc1 [Example 276]
